Data reported in patent US20140017330A1, “Activated Nucleoside Analog Conjugates and Methods of Use Thereof” (BOARD OF REGENTS OF THE UNIVERSITY OF NEBRASKA, priority 2011, published 2014).

Columns and labels:
[1] = system: cytarabine-resistant human leukemic lymphoblast CEM/araC/8 cells; experiment: MTT cytotoxicity assay, CEM/araC/8; assay type: cell-based; conditions: 72-hour treatment
Procedure: (§1) Human breast carcinoma MCF-7, human hepatocellular carcinoma HepG2, and human prostate adenocarcinoma PC-3 cells were obtained from ATCC (Rockville, Md.). These cells were maintained in Dulbecco's Modified Eagle Medium (DMEM) supplemented with 10% fetal bovine serum (FBS), 1% L-glutamine, and 2% penicillin-streptomycin at 37° C. in a humidified atmosphere containing 5% CO2. […] These cells were maintained in DMEM/Nutrient mixture F-12 (DMEM/F12) with similar supplements and serum as above. […] They were grown in the presence of 2 μM gemcitabine. […] Galmarini (UFR Lyon-Sud, Oullins, France). The cells were grown in the presence of 0.5 μM cytarabine (araC). […]
(§2) Cytotoxicity of the polymeric conjugates was analyzed in different cancer cell lines by a standard MTT assay. […] Samples were incubated in full medium for 72 hours at 37° C., and the metabolic activity of each sample was determined by adding 20 μL of a 5 mg/mL of MTT stock solution in sterile PBS buffer to each well. […] Optical absorbance was measured at 560 nm using a model 680 microplate reader (BioRad, Hercules, Calif.) and cytotoxicity was expressed as a percentage of survived cells relative to nontreated control cells. All samples were analyzed by an average of eight measurements (means±SEM).

[2] = system: human breast carcinoma MDA-MB-231 cells; experiment: MTT cytotoxicity assay, MDA-MB-231; assay type: cell-based; conditions: 72-hour treatment
Procedure: as §1, §2

[3] = system: human hepatocellular carcinoma HepG2 cells; experiment: MTT cytotoxicity assay, HepG2; assay type: cell-based; conditions: 72-hour treatment, read-out: IC50 values, Hep G2
Procedure: as §1, §2

[4] = system: human prostate adenocarcinoma PC-3 cells; experiment: MTT cytotoxicity assay, PC-3; assay type: cell-based; conditions: 72-hour treatment
Procedure: as §1, §2

[5] = system: human breast carcinoma MCF-7 cells; experiment: MTT cytotoxicity assay, MCF-7; assay type: cell-based; conditions: MCF7, 72-hour treatment
Procedure: as §1, §2

[6] = system: gemcitabine-resistant human follicular lymphoma RL7/G cells; experiment: MTT cytotoxicity assay, RL7/G; assay type: cell-based; conditions: 72-hour treatment
Procedure: as §1, §2

[7] = comparator from the literature (Mikkola 2004); cited from earlier work

## Nc1ccn([C@@H]2O[C@H](CO)[C@@H](O)[C@@H]2O)c(=O)n1 [Cytarabine (araC), arabinosylcytosine]
[1]
  IC50: 1.23 mM

## O=c1[nH]c(=O)n([C@H]2C[C@H](O)[C@@H](CO)O2)cc1F [Floxuridine (FdU), 5-fluoro-2′-deoxyuridine]
[2]
  IC50: 0.0142 mM
[3]
  IC50: 2.19 mM
[4]
  IC50: 0.0065 mM
[5]
  IC50: 12.2 mM

## Nc1ccn([C@@H]2O[C@H](CO)[C@@H](O)C2(F)F)c(=O)n1 [Gemcitabine (G), 2,2′-difluorocytidine]
[6]
  IC50: 19 mM

## Nc1ncnc2c1ncn2[C@@H]1O[C@H](COP(=O)(O)OP(=O)(O)OP(=O)(O)OP(=O)(O)OC[C@H]2O[C@@H](n3cnc4c(N)ncnc43)[C@H](O)[C@@H]2O)[C@@H](O)[C@H]1O [diadenosine-P1,P4-tetraphosphate]
[7]
  drug release time: 3 days
